For orientation: stoichiometry N means the number of molecules, sites or subunits per partner or assembly.

The values below come from publication doi:10.1101/2025.05.27.656397, “A new heme enzyme family forms hydrazine groups in diverse biosynthetic pathways” (bioRxiv, 2025).

For one experiment, the target named is T1, KinIJ (Streptomyces murayamaensis, UniProt A0A385LMJ2).
T1 construct: gene kinJ; heterodimer, His6 tag on one or both proteins, expressed aerobically in E. coli and purified anaerobically; KinI co-purified or added separately; with Ferredoxin KinI
Nature of the experiment: LC-MS detection of L-hydrazinosuccinate. To be noted: methyl or benzyl viologen, anaerobic. Type of experiment: biochemical.

The next experiment has as its target T2, KinJ (Streptomyces murayamaensis, UniProt A0A385LMJ2).
T2 construct: monomeric when expressed alone; contains heme b
The experiment can be described thus: EPR spectroscopy. It counts as binding. To be noted: ferric enzyme; axial ligand of heme; no ferredoxin.

Experiment [1] addresses FzmP, co-expressed with KinI (not stated (Streptomyces sp. S-149 or Streptomyces sp. XY332 cloned)). The experiment can be described thus: SEC; anaerobic size exclusion chromatography of proteins expressed alone or co-expressed and purified. (In gel filtration, larger molecules generally elute earlier.)
Experiment [2] addresses T3, KinJ from Streptomyces murayamaensis ATCC 21414 (tag placement not stated for the experiment) (Streptomyces murayamaensis ATCC 21414, UniProt A0A385LMJ2).
T3 chain: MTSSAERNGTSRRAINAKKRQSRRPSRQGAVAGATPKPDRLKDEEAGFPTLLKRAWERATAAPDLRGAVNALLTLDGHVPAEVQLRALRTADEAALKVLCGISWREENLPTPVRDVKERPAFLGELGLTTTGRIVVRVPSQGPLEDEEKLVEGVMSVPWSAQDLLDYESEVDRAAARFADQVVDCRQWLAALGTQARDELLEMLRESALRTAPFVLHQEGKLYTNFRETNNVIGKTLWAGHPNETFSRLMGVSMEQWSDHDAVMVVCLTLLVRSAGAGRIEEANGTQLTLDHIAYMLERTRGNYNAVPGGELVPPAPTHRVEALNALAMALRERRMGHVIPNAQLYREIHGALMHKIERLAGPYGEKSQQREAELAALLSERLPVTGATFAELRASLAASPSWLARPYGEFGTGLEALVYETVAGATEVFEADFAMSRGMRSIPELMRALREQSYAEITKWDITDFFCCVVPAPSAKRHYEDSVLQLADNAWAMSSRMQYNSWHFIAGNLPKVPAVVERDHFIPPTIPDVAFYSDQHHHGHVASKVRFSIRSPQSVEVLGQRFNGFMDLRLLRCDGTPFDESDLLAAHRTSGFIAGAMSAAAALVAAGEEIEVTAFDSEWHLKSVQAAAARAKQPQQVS
The experiment can be described thus: reciprocal His6 co-purification (pull-down) and anaerobic SEC of the co-expressed complex; co-expressed in E. coli and purified anaerobically as a complex.

Take `N[C@@H](CC(=O)O)C(=O)O` [L-aspartate]: at KinIJ (NaNO2, sodium dithionite), the “LC-MS detection of L-hydrazinosuccinate” value is “indicating the formation of an N–N bond-containing product from L-Asp and NO2^–”.
Take `O=NO` [NO2^–]: the EPR spectroscopy result on KinJ is given as “addition of NO2^– (a strong field ligand) was associated with the formation of a 6-coordinate rhombic”. For the same molecule, at KinIJ (L-aspartate, sodium dithionite, 15N-labelled nitrite also used), the “LC-MS detection of L-hydrazinosuccinate” value was “indicating the formation of an N–N bond-containing product from L-Asp and NO2^–”.
For FzmP, co-expressed with KinI (enzyme), the stoichiometry N in experiment [1] came out at 2.

B1: KinI (ferredoxin; tag placement not stated for the experiment) (protein)
chain: MPTNTSDDSLDETVEGSVSGRDKLIAERTRSETWKKPPRRIERAECITCDTCLRACPPEFNAIFDNGLDVVIIPELCSGCPKCVLECPVDCIYVDEDWTPTTDEMWKHIGLTAEGVS
Take B1: the binding result in experiment [2] was “binds”.
